Laboratory results published in patent US9650395B2, “Antibacterial compounds and methods for use” (PTC Therapeutics, Inc., priority 2011, dated 2017).
Values after ≈ are worked out from the molar mass of the structure shown. Like-named read-outs stand apart in the source and are kept apart here.

How the values were obtained:
[1] = tested on: E. coli ELZ4251 (MDR clinical isolate); experiment: Antibacterial activity, MIC, MDR E. coli ELZ4251; assay type: cell-based, Escherichia coli; conditions: Escherichia coli, E. coli ELZ4251, MDR clinical isolate; read-out: MIC ELZ4251
[2] = tested on: control Gram-negative E. coli 25922 strain; experiment: Antibacterial activity, microbroth dilution MIC, E. coli 25922; assay type: cell-based, Escherichia coli; conditions: Escherichia coli; E. coli 25922, microbroth dilution; read-out: MIC, 25922
[3] = tested on: E. coli ELZ4000 (MDR clinical isolate); experiment: Antibacterial activity, MIC, MDR E. coli ELZ4000; assay type: cell-based, Escherichia coli; conditions: Escherichia coli; E. coli ELZ4000, MDR clinical isolate; read-out: MIC ELZ4000
[4] = tested on: quinolone resistant E. coli LZ3111; experiment: Antibacterial activity, MIC, quinolone resistant E. coli LZ3111; assay type: cell-based, Escherichia coli; conditions: Escherichia coli, read-out: MIC, LZ3111
Source text: (§1) The antibacterial activity from a microbroth dilution method may be presented as the minimum inhibitory concentration (MIC in […]). The MIC value is the lowest concentration of a drug which prevents macroscopically visible bacterial growth under test conditions.
Mutations in these regions are known to confer a high level resistance to the quinolone class of antibiotics.

[5] = tested on: super sensitive Gram-negative Escherichia coli (E. coli) BAS849; experiment: Antibacterial activity, microbroth dilution MIC, E. coli BAS849; assay type: cell-based; conditions: Escherichia coli, read-out: MIC, BAS849
[6] = tested on: Gram-positive Staphylococcus aureus (S. aureus) 29213; experiment: Antibacterial activity, microbroth dilution MIC, S. aureus 29213; assay type: cell-based; conditions: Staphylococcus aureus; S. aureus 29213, microbroth dilution; read-out: MIC, 29213
[7] = tested on: Pseudomonas aeruginosa (P. aeruginosa) 27853; experiment: Antibacterial activity, MIC, P. aeruginosa 27853; assay type: cell-based; conditions: Pseudomonas aeruginosa, P. aeruginosa 27853; read-out: MIC 27853
Source text: as §1
Antibacterial activity of test compounds against the Gram-negative bacterium Pseudomonas aeruginosa (P. aeruginosa) 27853 is shown in Table 5.

[8] = E. coli BAS849, microbroth dilution

SMILES	MIC [1] [µg/mL]	MIC [2] [µg/mL]	MIC [3] [µg/mL]	MIC [4] [µg/mL]	MIC [5, 8] [µg/mL]	MIC [6] [µg/mL]	MIC [7] [µg/mL]	MIC [5] [µg/mL]
CCc1cc(C(=O)O)c(=O)[nH]c1-c1ccc(OC)cc1 [Cpd 24, 5-ethyl-6-(4-methoxyphenyl)-2-oxo-1,2-dihydropyridine-3-carboxylic acid]	12.5 to 150 (≈ 45.7 to 549 µM)	3.5 to 12.5 (≈ 12.8 to 45.7 µM)	12.5 to 150 (≈ 45.7 to 549 µM)	12.5 to 150 (≈ 45.7 to 549 µM)	< 1	12.5 to 150 (≈ 45.7 to 549 µM)	–	–
CCc1c(-c2ccc(N3CC[C@H](F)C3)cc2)[nH]c(=O)c(C(=O)O)c1O [Cpd 85, 5-ethyl-6-{4-[(3S)-3-fluoropyrrolidin-1-yl]phenyl}-4-hydroxy-2-oxo-1,2-dihydropyridine-3-carboxylic acid]	12.5 to 150 (≈ 36.1 to 433 µM)	12.5 to 150 (≈ 36.1 to 433 µM)	12.5 to 150 (≈ 36.1 to 433 µM)	12.5 to 150 (≈ 36.1 to 433 µM)	< 1	3.5 to 12.5 (≈ 10.1 to 36.1 µM)	12.5 to 150 (≈ 36.1 to 433 µM)	–
CCc1cc(C(=O)O)c(=O)[nH]c1-c1ccc(N2CCC(N=[N+]=[N-])C2)cc1 (centres unmarked) [Cpd 129, 6-[4-(3-azidopyrrolidin-1-yl)phenyl]-5-ethyl-2-oxo-1,2-dihydropyridine-3-carboxylic acid]	12.5 to 150 (≈ 35.4 to 424 µM)	1 to 3.5 (≈ 2.83 to 9.9 µM)	12.5 to 150 (≈ 35.4 to 424 µM)	12.5 to 150 (≈ 35.4 to 424 µM)	< 1	3.5 to 12.5 (≈ 9.9 to 35.4 µM)	12.5 to 150 (≈ 35.4 to 424 µM)	–
CCc1cc(C(=O)O)c(=O)[nH]c1-c1ccc(N2CC[C@H](N=[N+]=[N-])C2)cc1 [Cpd 130, 6-{4-[(3S)-3-azidopyrrolidin-1-yl]phenyl}-5-ethyl-2-oxo-1,2-dihydropyridine-3-carboxylic acid]	12.5 to 150 (≈ 35.4 to 424 µM)	1 to 3.5 (≈ 2.83 to 9.9 µM)	12.5 to 150 (≈ 35.4 to 424 µM)	12.5 to 150 (≈ 35.4 to 424 µM)	< 1	3.5 to 12.5 (≈ 9.9 to 35.4 µM)	–	–
CCc1cc(C(=O)O)c(=O)[nH]c1-c1ccc(N2CCC(N)C2)cc1.O=C(O)C(F)(F)F (centres unmarked) [Cpd 131, 6-[4-(3-aminopyrrolidin-1-yl)phenyl]-5-ethyl-2-oxo-1,2-dihydropyridine-3-carboxylic acid trifluoroacetate]	12.5 to 150	3.5 to 12.5	12.5 to 150	12.5 to 150	–	12.5 to 150	12.5 to 150	< 1
CCc1cc(C(=O)O)c(=O)[nH]c1-c1ccc(N2CCCC2C)cc1 (centres unmarked) [Cpd 139, 5-ethyl-6-[4-(2-methylpyrrolidin-1-yl)phenyl]-2-oxo-1,2-dihydropyridine-3-carboxylic acid]	12.5 to 150 (≈ 38.3 to 460 µM)	3.5 to 12.5 (≈ 10.7 to 38.3 µM)	12.5 to 150 (≈ 38.3 to 460 µM)	12.5 to 150 (≈ 38.3 to 460 µM)	< 1	3.5 to 12.5 (≈ 10.7 to 38.3 µM)	12.5 to 150 (≈ 38.3 to 460 µM)	–
CCc1cc(C(=O)O)c(=O)[nH]c1-c1ccc(N2CCC(N(C)C)C2)cc1 (centres unmarked) [Cpd 149, 6-{4-[3-(dimethylamino)pyrrolidin-1-yl]phenyl}-5-ethyl-2-oxo-1,2-dihydropyridine-3-carboxylic acid]	12.5 to 150 (≈ 35.2 to 422 µM)	1 to 3.5 (≈ 2.81 to 9.85 µM)	12.5 to 150 (≈ 35.2 to 422 µM)	12.5 to 150 (≈ 35.2 to 422 µM)	< 1	12.5 to 150 (≈ 35.2 to 422 µM)	12.5 to 150 (≈ 35.2 to 422 µM)	–
CCc1cc(C(=O)O)c(=O)[nH]c1-c1ccc(N2CCC(F)C2)cc1 (centres unmarked) [Cpd 152, 5-ethyl-6-[4-(3-fluoropyrrolidin-1-yl)phenyl]-2-oxo-1,2-dihydropyridine-3-carboxylic acid]	12.5 to 150 (≈ 37.8 to 454 µM)	1 to 3.5 (≈ 3.03 to 10.6 µM)	12.5 to 150 (≈ 37.8 to 454 µM)	12.5 to 150 (≈ 37.8 to 454 µM)	< 1	3.5 to 12.5 (≈ 10.6 to 37.8 µM)	3.5 to 12.5 (≈ 10.6 to 37.8 µM)	–
CCc1cc(C(=O)O)c(=O)[nH]c1-c1ccc(N2CC[C@H](F)C2)cc1 [Cpd 153, 5-ethyl-6-{4-[(3S)-3-fluoropyrrolidin-1-yl]phenyl}-2-oxo-1,2-dihydropyridine-3-carboxylic acid]	12.5 to 150 (≈ 37.8 to 454 µM)	< 1	12.5 to 150 (≈ 37.8 to 454 µM)	12.5 to 150 (≈ 37.8 to 454 µM)	< 1	1 to 3.5 (≈ 3.03 to 10.6 µM)	3.5 to 12.5 (≈ 10.6 to 37.8 µM)	–
CCc1cc(C(=O)O)c(=O)[nH]c1-c1ccc(N(C)CCN(C)C)cc1 [Cpd 161, 6-(4-{[2-(dimethylamino)ethyl](methyl)amino}phenyl)-5-ethyl-2-oxo-1,2-dihydropyridine-3-carboxylic acid]	12.5 to 150 (≈ 36.4 to 437 µM)	1 to 3.5 (≈ 2.91 to 10.2 µM)	12.5 to 150 (≈ 36.4 to 437 µM)	12.5 to 150 (≈ 36.4 to 437 µM)	< 1	12.5 to 150 (≈ 36.4 to 437 µM)	–	–
CC(C)c1cc(C(=O)O)c(=O)[nH]c1-c1ccc(N2CCCC2)cc1 [Cpd 163, 5-isopropyl-2-oxo-6-[4-(pyrrolidin-1-yl)phenyl]-1,2-dihydropyridine-3-carboxylic acid]	12.5 to 150 (≈ 38.3 to 460 µM)	3.5 to 12.5 (≈ 10.7 to 38.3 µM)	12.5 to 150 (≈ 38.3 to 460 µM)	12.5 to 150 (≈ 38.3 to 460 µM)	< 1	12.5 to 150 (≈ 38.3 to 460 µM)	–	–
O=C(O)c1cc(C2CC2)c(-c2ccc(N3CCCC3)cc2)[nH]c1=O [Cpd 164, 5-cyclopropyl-2-oxo-6-[4-(pyrrolidin-1-yl)phenyl]-1,2-dihydropyridine-3-carboxylic acid]	12.5 to 150 (≈ 38.5 to 462 µM)	1 to 3.5 (≈ 3.08 to 10.8 µM)	12.5 to 150 (≈ 38.5 to 462 µM)	12.5 to 150 (≈ 38.5 to 462 µM)	< 1	3.5 to 12.5 (≈ 10.8 to 38.5 µM)	–	–
CCc1cc(C(=O)O)c(=O)[nH]c1-c1ccc(N2CC3NCCOC3C2)cc1.Cl (centres unmarked) [Cpd 179, 5-ethyl-6-[4-(hexahydropyrrolo[3,4-b][1,4]oxazin-6(2H)-yl)phenyl]-2-oxo-1,2-dihydropyridine-3-carboxylic acid hydrochloride]	12.5 to 150	3.5 to 12.5	12.5 to 150	12.5 to 150	1 to 3.5	12.5 to 150	–	–
CCc1cc(C(=O)O)c(=O)[nH]c1-c1ccc(N2CCC(CN(C)Cc3ccccc3)C2)cc1.O=C(O)C(F)(F)F (centres unmarked) [Cpd 183, 6-[4-(3-{[benzyl(methyl)amino]methyl}pyrrolidin-1-yl)phenyl]-5-ethyl-2-oxo-1,2-dihydropyridine-3-carboxylic acid trifluoroacetate]	12.5 to 150	3.5 to 12.5	12.5 to 150	12.5 to 150	–	12.5 to 150	–	< 1
CCc1cc(C(=O)O)c(=O)[nH]c1-c1ccc(N2C[C@H]3CN(Cc4ccccc4)C[C@H]3C2)cc1.Cl [Cpd 206, 6-{4-[(3aR,6aS)-5-benzylhexahydropyrrolo[3,4-c]pyrrol-2(1H)-yl]phenyl}-5-ethyl-2-oxo-1,2-dihydropyridine-3-carboxylic acid hydrochloride]	12.5 to 150	3.5 to 12.5	12.5 to 150	12.5 to 150	1 to 3.5	12.5 to 150	–	–
CCc1cc(C(=O)O)c(=O)[nH]c1-c1ccc(N2C[C@H]3CN(C)C[C@H]3C2)cc1.Cl [Cpd 208, 5-ethyl-6-{4-[(3aR,6aS)-5-methylhexahydropyrrolo[3,4-c]pyrrol-2(1H)-yl]phenyl}-2-oxo-1,2-dihydropyridine-3-carboxylic acid hydrochloride]	12.5 to 150	3.5 to 12.5	12.5 to 150	12.5 to 150	1 to 3.5	12.5 to 150	–	–
CCc1c(-c2ccc(N3CC4=CCCC[C@@H]4C3)cc2)[nH]c(=O)c(C(=O)O)c1O.Cl [Cpd 297, 5-ethyl-6-{4-[(3aS)-1,3,3a,4,5,6-hexahydro-2H-isoindol-2-yl]phenyl}-4-hydroxy-2-oxo-1,2-dihydropyridine-3-carboxylic acid hydrochloride]	–	12.5 to 150	–	12.5 to 150	< 1	3.5 to 12.5	–	–
CCc1cc(C(=O)O)c(=O)[nH]c1-c1cc(CN2CCCC2)n(C)c1 [Cpd 348, 5-ethyl-6-(1-methyl-5-(pyrrolidin-1-ylmethyl)-1H-pyrrol-3-yl)-2-oxo-1,2-dihydropyridine-3-carboxylic acid]	–	12.5 to 150 (≈ 37.9 to 455 µM)	–	12.5 to 150 (≈ 37.9 to 455 µM)	3.5 to 12.5 (≈ 10.6 to 37.9 µM)	12.5 to 150 (≈ 37.9 to 455 µM)	–	–
CCc1cc(C(=O)O)c(=O)[nH]c1-c1cc(CN2CCCCC2)n(C)c1 [Cpd 349, 5-ethyl-6-(1-methyl-5-(piperidin-1-ylmethyl)-1H-pyrrol-3-yl)-2-oxo-1,2-dihydropyridine-3-carboxylic acid]	–	12.5 to 150 (≈ 36.4 to 437 µM)	–	12.5 to 150 (≈ 36.4 to 437 µM)	12.5 to 150 (≈ 36.4 to 437 µM)	12.5 to 150 (≈ 36.4 to 437 µM)	–	–
CCc1cc(C(=O)O)c(=O)[nH]c1-c1ccc(CN2CCCC2)n1C [Cpd 350, 5-ethyl-6-(1-methyl-5-(pyrrolidin-1-ylmethyl)-1H-pyrrol-2-yl)-2-oxo-1,2-dihydropyridine-3-carboxylic acid]	–	12.5 to 150 (≈ 37.9 to 455 µM)	–	12.5 to 150 (≈ 37.9 to 455 µM)	12.5 to 150 (≈ 37.9 to 455 µM)	12.5 to 150 (≈ 37.9 to 455 µM)	–	–
CCc1cc(C(=O)O)c(=O)[nH]c1-c1ccc(CN(C)C)n1C [Cpd 351, 6-(5-((dimethylamino)methyl)-1-methyl-1H-pyrrol-2-yl)-5-ethyl-2-oxo-1,2-dihydropyridine-3-carboxylic acid]	–	12.5 to 150 (≈ 41.2 to 494 µM)	–	12.5 to 150 (≈ 41.2 to 494 µM)	12.5 to 150 (≈ 41.2 to 494 µM)	12.5 to 150 (≈ 41.2 to 494 µM)	–	–
CCc1cc(C(=O)O)c(=O)[nH]c1-c1ccc(CN2CCCCC2)n1C [Cpd 352, 5-ethyl-6-(1-methyl-5-(piperidin-1-ylmethyl)-1H-pyrrol-2-yl)-2-oxo-1,2-dihydropyridine-3-carboxylic acid]	–	12.5 to 150 (≈ 36.4 to 437 µM)	–	12.5 to 150 (≈ 36.4 to 437 µM)	12.5 to 150 (≈ 36.4 to 437 µM)	12.5 to 150 (≈ 36.4 to 437 µM)	–	–
CCc1cc(C(=O)O)c(=O)[nH]c1-c1ccc(CN2CCC(N(C)C)C2)n1C (centres unmarked) [Cpd 353, 6-(5-((3-(dimethylamino)pyrrolidin-1-yl)methyl)-1-methyl-1H-pyrrol-2-yl)-5-ethyl-2-oxo-1,2-dihydropyridine-3-carboxylic acid]	–	12.5 to 150 (≈ 33.6 to 403 µM)	–	12.5 to 150 (≈ 33.6 to 403 µM)	12.5 to 150 (≈ 33.6 to 403 µM)	12.5 to 150 (≈ 33.6 to 403 µM)	–	–
